What all share (format): in vitro ADME
Data set [1] can be described thus: Hepatocyte Stability Assay, rat. On all read-outs here: tested at 1 µM. As to conditions: for Rat hepatocyte clearance: rat hepatocytes. Here is the method: • Preparation of working solutions: 10 mM stock solutions of test compound and positive control were prepared in DMSO. In separate conical tubes, the 10 mM solution of test compound and the positive control were diluted to 100 μM by combining 198 μL of 50% acetonitrile/50% water and 2 μL of 10 mM stock.
Preparation of Hepatocytes: Incubation medium (William's E Medium supplemented with GlutaMAX) and hepatocyte thawing medium were placed in a 37° C. water bath and allowed warming for at least 15 minutes prior to use. A vial of cryopreserved hepatocytes was transferred from storage, ensuring that vials remained at cryogenic temperatures until thawing process ensued. Cells were thawed by placing the vial in a 37° C. water bath and gently shaking the vials for 2 minutes. After thawing was completed, vial was sprayed with 70% ethanol and transferred to a biosafety cabinet. Wide-bore pipette tip were used to transfer hepatocytes into 50 mL conical tube containing thawing medium. The 50 mL conical tube were placed into a centrifuge and spun at 100 g for 10 minutes. Upon completion of spin, thawing medium was aspirated and resuspended hepatocytes in enough incubation medium to yield ˜1.5×10^6 cells/mL. Using an AO/PI Staining, cells were counted and the viable cell density was determined. Cells with poor viability (<75% viability) were determined to be not acceptable for use. Cells were diluted with incubation medium to a working cell density of 0.5×10^6 viable cells/mL.
Procedure for Stability Determination: 198 μL of hepatocytes were pipetted into each wells of a 96-well non-coated plate. The plate was placed in the incubator to allow the hepatocytes to warm for 10 minutes. 2 μL of the 100 μM test compound or positive control solutions were pipetted into respective wells of the 96-well non-coated plate to start the reaction. The plate was returned to the incubator for the designed time points. Well contents was transferred in 25 μL aliquots at time points of 0, 15, 30, 60, 90 and 120 minutes. The aliquots were then mixed with 6 volumes (150 μL) of acetonitrile containing internal standard, IS (100 nM alprazolam, 200 nM caffeine and 100 nM tolbutamide) to terminate the reaction. The mixture was vortex for 5 minutes. Samples were centrifuged for 45 minutes at 3,220 g. An aliquot of 100 μL of the supernatant was diluted by 100 μL ultra-pure water, and the mixture was used for LC/MS/MS analysis. All incubations were performed in duplicate.
Data Analysis: All calculations were carried out using Microsoft Excel. Peak areas were determined from extracted ion chromatograms. In vitro half-life (t1/2) of parent compound was determined by regression analysis of the percent parent disappearance vs. time curve.
The in vitro half-life (in vitro t1/2) was determined from the slope value:
Conversion of the in vitro t1/2 (in min) into the in vitro intrinsic clearance (in vitro CLint, in μL/min/1×10^6 cells) was done using the following equation (mean of duplicate determinations):
V=incubation volume(0.2 mL);
N=number of hepatocytes per well(0.1×10^6 cells).
“+++” indicates a CLint value less than 20 mL/min/Kg, “++” indicates a CLint between 20 and 50 mL/min/Kg, and “+” indicates an CLint above 50 mL/min/Kg.

In another data set the target is T1, CYP2D6 (Homo sapiens, UniProt P10635).
T1 construct: from tissue; host or cells: human liver microsomes (HLM)
Kind of data set: CYP Inhibition Assay in human liver microsomes, CYP2D6. As to conditions: pH 7.4. Here is the method:
Stock solutions of test compounds were prepared in DMSO at the concentrations of 10 mM. Stock solution was diluted to 2 mM with acetonitrile. The final concentration of test compounds was 10 μM. For the stock solution preparation, if the positive control could not be well dissolved in the mixture of DMSO and acetonitrile (1:4) at the highest concentration, another mixture of acetonitrile and DMSO, the mixture of acetonitrile and H2O or DMSO will be used to dissolve the compound.
The substrate solutions are stored in a −20° C. freezer and warmed to room temperature prior to use.
Preparation of Phosphate Buffer (100 mmol/L, pH 7.4): To prepare the Solution A, 7.098 g of disodium hydrogen phosphate were weighed out and added into 500 mL of pure water, then sonicated to dissolve the content. To prepare the Solution B, 3.400 g of potassium dihydrogen phosphate were weighed out and added into 250 mL of pure water, then sonicated to dissolve the content. Solution A was placed on a stirrer and slowly Solution B was added into Solution A until the pH reached 7.4. Preparation of 10 mmol/L NADPH Solution: NADPH was dissolved at 8.334 mg/mL in phosphate buffer; the solution was freshly prepared prior to use.
The master solution was prepared according to Table 45. The incubation was carried out in 96 deep well plates. The following volumes were dispensed into each well of the incubation plate: 179 μL of the substrate and HLM mixture in phosphate buffer, 1 μL of the compound working solution, or vehicle (mixture of DMSO and acetonitrile (1:4)). The incubation plate was placed into the water bath and pre-warmed at 37° C. for 15 minutes before the reactions was started by the addition of 20 μL of 10 mmol/L NADPH solution in phosphate buffer. After the addition of NADPH, the incubation plate was incubated at 37° C. for corresponding time. The assay was performed in duplicate.
The reaction was quenched by the addition of 1.5 volume (300 μL) of cold acetonitrile containing 3% formic acid and internal standards (200 nM Labetalol, 200 nM Alprazolam and 200 nM tolbutamide). The plate was centrifuged at 3,220 g for 40 minutes. 100 μL of the supernatant was transferred to a new plate. The supernatant was diluted with 100 μL pure water. The samples were mixed well and analyzed using UPLC/MS/MS.
Data Analysis: The automatic peak integration areas are checked for all the samples. The Analyte Peak Area and Internal Standard Peak Area are exported into excel spreadsheet. The inhibition of each P450 enzyme in human liver microsomes is measured as the percentage decrease in the activity of marker metabolite formation compared to non-inhibited controls (=100% activity).
The percentage of remaining activity was calculated as follows:
Area Ratio=Peak Area Analyte/Peak Area Internal Standard Remaining Activity (%)=Area Ratio test compound/Area Ratio vehicle*100% Inhibition %=100-Remaining Activity (%)
For orientation: Microsomes from liver hold many membrane-bound enzymes, among them those of drug oxidation.

Data set [2] in a line: Hepatocyte Stability Assay, human. The note with it: for CLint scaled: human, plated hepatocytes.
A short description of data set [3]: Hepatocyte Stability Assay, human. As to conditions: for CLint scaled at 1 μM: cryopreserved hepatocytes in suspension, human hepatocytes, read-out: Human hepatocyte clearance.
Where [4] appears, read: plated hepatocyte, Pharmaron assay, read-out: Human hepatocyte clearance Plated hepatocyte Pharmaron assay.
Setting [5] is: plated hepatocyte, Alliance assay, read-out: Human hepatocyte clearance Plated hepatocyte Alliance assay.

Read-outs that look alike come from different tables or passages of the source.

T1 sequence (P10635 whole entry): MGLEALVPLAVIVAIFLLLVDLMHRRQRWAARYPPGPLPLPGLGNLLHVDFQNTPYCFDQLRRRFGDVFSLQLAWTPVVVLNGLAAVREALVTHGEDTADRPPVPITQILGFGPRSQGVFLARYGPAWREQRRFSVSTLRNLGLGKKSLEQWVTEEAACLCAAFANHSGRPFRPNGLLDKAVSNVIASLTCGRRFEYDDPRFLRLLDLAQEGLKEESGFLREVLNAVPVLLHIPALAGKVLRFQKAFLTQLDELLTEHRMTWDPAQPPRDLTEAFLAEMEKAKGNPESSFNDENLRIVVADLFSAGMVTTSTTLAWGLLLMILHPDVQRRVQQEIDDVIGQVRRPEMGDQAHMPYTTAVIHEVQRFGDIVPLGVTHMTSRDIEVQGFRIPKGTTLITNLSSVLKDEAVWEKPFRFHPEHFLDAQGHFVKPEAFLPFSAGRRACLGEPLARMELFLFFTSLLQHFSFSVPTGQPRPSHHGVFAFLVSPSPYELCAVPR

Regarding `O=c1c2cc(-c3ccc(C(F)(F)F)nc3)nc(-c3cccnc3)c2ncn1[C@@H]1COC[C@H]1O` [Compound 79], in data set [1], the Rat hepatocyte clearance entry was “+++ (“+++” indicates a CLint value less than 20 mL/min/Kg)”. The same compound came in with an inhibition at 10 µM on CYP2D6 of 8%. Also, the CLint scaled in data set [2] (setting [4]) is < 20 mL/min/kg. In addition, the CLint scaled at 1 μM in data set [3] is < 20 mL/min/kg.

In the case of `CC(C)(O)Cn1cnc2c(-c3cccnc3)nc(-c3ccc(C(F)(F)F)cn3)cc2c1=O` [Compound 105], in data set [1], the Rat hepatocyte clearance entry is on record as “+++ (“+++” indicates a CLint value less than 20 mL/min/Kg)”. For the same compound, 10 µM produced 2.73% inhibition on CYP2D6. The CLint scaled in data set [2] (setting [4]) is < 20 mL/min/kg. Moreover, the CLint scaled at 1 μM in data set [3] is < 20 mL/min/kg.

For `Cn1cc(-c2nc(-c3ccc(C(F)(F)F)cn3)cc3c(=O)n(CC(C)(C)O)cnc23)cn1` [Compound 103, 3-(2-hydroxy-2-methylpropyl)-8-(1-methyl-1H-pyrazol-4-yl)-6-(5-(trifluoromethyl)pyridin-2-yl)pyrido[3,4-d]pyrimidin-4(3H)-one], the Rat hepatocyte clearance result in data set [1] is “++ (“++” indicates a CLint between 20 and 50 mL/min/Kg)”. At CYP2D6, this compound had an inhibition at 10 µM of 8.7%. For the same compound, the CLint scaled at 1 μM in data set [3] was < 20 mL/min/kg.

Consider `C[C@@H](CO)n1cnc2c(-n3ccnc3)nc(-c3ccc(C(F)(F)F)nc3)cc2c1=O` [Compound 163, (S)-3-(1-hydroxypropan-2-yl)-8-(1H-imidazol-1-yl)-6-(6-(trifluoromethyl)pyridin-3-yl)pyrido[3,4-d]pyrimidin-4(3H)-one], for which the CLint scaled in data set [2] (setting [5]) is < 20 mL/min/kg. Also, in data set [3], the CLint scaled at 1 μM was < 20 mL/min/kg.

For the compound `C[C@@H](CO)n1cnc2c(-c3cccnc3)nc(-c3ccc(C(F)(F)F)cc3)cc2c1=O` [Compound 23], the CLint scaled in data set [2] (setting [4]) was < 20 mL/min/kg. Moreover, in data set [3], the CLint scaled at 1 μM was < 20 mL/min/kg.

Turning to `O=c1c2cc(-c3ccc(Cl)cc3)nc(-c3cccnc3)c2ncn1[C@H]1COC[C@@H]1O` [Compound 125, 6-(4-chlorophenyl)-3-((3S,4R)-4-hydroxytetrahydrofuran-3-yl)-8-(pyridin-3-yl)pyrido[3,4-d]pyrimidin-4(3H)-one], in data set [1], the Rat hepatocyte clearance entry is recorded as “+ (“+” indicates an CLint above 50 mL/min/Kg)”. Moreover, on CYP2D6, the inhibition at 10 µM amounted to 20.6%. Moreover, in data set [2] (setting [4]), the CLint scaled was < 20 mL/min/kg. In addition, the CLint scaled at 1 μM in data set [3] was < 20 mL/min/kg.

Turning to `C[C@@H](CO)n1cnc2c(-c3cccnc3)nc(-c3ccc(C(F)(F)F)cn3)cc2c1=O` [Compound 46, (S)-3-(1-hydroxypropan-2-yl)-8-(pyridin-3-yl)-6-(5-(trifluoromethyl)pyridin-2-yl)pyrido[3,4-d]pyrimidin-4(3H)-one], the Rat hepatocyte clearance entry in data set [1] was “+++ (“+++” indicates a CLint value less than 20 mL/min/Kg)”. In addition, in data set [1] (suspension rat hepatocytes), the “Suspension Rat heps Clint (% Qh)” value is recorded as < 24 % Qh. Further, on CYP2D6, the inhibition at 10 µM worked out at 7.43%. Moreover, the CLint scaled in data set [2] (setting [4]) is < 20 mL/min/kg. In addition, the “Human hepatocyte clearance Plated hepatocyte Alliance assay” value in data set [2] (plated hepatocyte, Alliance assay) is on record as “+++ (“+++” indicates a CLint value less than 20 mL/min/Kg)”. In addition, the “Plated heps (% Qh)” value in data set [2] (plated human hepatocytes) is reported as < 1 % Qh. The “Plated heps (% Qh), All” value in data set [2] (plated human hepatocytes, value in brackets marked "All") was 1.0 % Qh. The CLint scaled at 1 μM in data set [3] is < 20 mL/min/kg. Besides, the “Human hepatocyte intrinsic clearance, suspension Hheps ClInt (% Qh)” value in data set [3] (suspension human hepatocytes) is given as <31 % Qh.

With `CC(C)(O)Cn1cnc2c(-c3cccnc3)nc(-c3ccc(Cl)cc3)cc2c1=O` [Compound 18], the Rat hepatocyte clearance entry in data set [1] is given as “+++ (“+++” indicates a CLint value less than 20 mL/min/Kg)”. Also, the inhibition at 10 µM at CYP2D6 was 12.1%. For the same compound, the CLint scaled in data set [2] (setting [4]) is < 20 mL/min/kg. The CLint scaled at 1 μM in data set [3] was < 20 mL/min/kg.

Regarding `O=c1c2cc(-c3ccc(C(F)(F)F)nc3)nc(-c3cccnc3)c2ncn1C[C@H](O)C(F)(F)F` [Compound 57], the CLint scaled in data set [2] (setting [5]) was < 20 mL/min/kg. Besides, the CLint scaled at 1 μM in data set [3] is < 20 mL/min/kg.

For `Cn1cc(-c2nc(-c3ccc(C(F)(F)F)nc3)cc3c(=O)n(CC(C)(C)O)cnc23)cn1` [Compound 60], the Rat hepatocyte clearance entry in data set [1] is reported as “+++ (“+++” indicates a CLint value less than 20 mL/min/Kg)”. Moreover, the CLint scaled in data set [2] (setting [4]) was < 20 mL/min/kg. Moreover, the CLint scaled at 1 μM in data set [3] was < 20 mL/min/kg.

For the compound `Cc1ccc(-c2cc3c(=O)n([C@@H](C)CO)cnc3c(-c3cccnc3)n2)cc1` [Compound 17, (S)-3-(1-hydroxypropan-2-yl)-8-(pyridin-3-yl)-6-(p-tolyl)pyrido[3,4-d]pyrimidin-4(3H)-one], in data set [1], the Rat hepatocyte clearance entry was “+ (“+” indicates an CLint above 50 mL/min/Kg)”. The CLint scaled at 1 μM in data set [3] lay within 20 to 50 mL/min/kg.

As for `C[C@@H](CO)n1cnc2c(-c3cnn(C)c3)nc(-c3ccc(Cl)cc3)cc2c1=O` [Compound 27], the Rat hepatocyte clearance entry in data set [1] was “+++ (“+++” indicates a CLint value less than 20 mL/min/Kg)”. Besides, at 10 µM the inhibition against CYP2D6 was 8.96%. The CLint scaled at 1 μM in data set [3] is < 20 mL/min/kg.

In the case of `C[C@@H](CO)n1cnc2c(-c3cccc(F)c3)nc(-c3ccc(Cl)cc3)cc2c1=O` [Compound 7], the Rat hepatocyte clearance result in data set [1] was “++ (“++” indicates a CLint between 20 and 50 mL/min/Kg)”. This compound also yielded an inhibition at 10 µM on CYP2D6 of 6.78%. For the same compound, the CLint scaled at 1 μM in data set [3] fell in the range of 20 to 50 mL/min/kg.

As for `C[C@@H](CO)n1cnc2c(-c3cnn(C)c3)nc(-c3ccc(C4CC4)nc3)cc2c1=O` [Compound 83], in data set [2] (setting [5]), the CLint scaled is < 20 mL/min/kg. Moreover, the CLint scaled at 1 μM in data set [3] is < 20 mL/min/kg.

`O=c1c2cc(-c3ccc(Cl)cc3)nc(-c3cccnc3)c2ncn1C[C@H](O)C(F)(F)F` (single isomer, unassigned) [185 enantiomer 2]: the Rat hepatocyte clearance entry in data set [1] was “++ (“++” indicates a CLint between 20 and 50 mL/min/Kg)”. Also, the CLint scaled at 1 μM in data set [3] is < 20 mL/min/kg.

Turning to `C[C@@H](CO)n1cnc2c(-c3cccnc3)nc(-c3ccc(C4CC4)nc3)cc2c1=O` [Compound 74], the Rat hepatocyte clearance entry in data set [1] was “++ (“++” indicates a CLint between 20 and 50 mL/min/Kg)”. The same compound showed an inhibition at 10 µM against CYP2D6 of 7.27%. In data set [3], the CLint scaled at 1 μM is < 20 mL/min/kg.

In the case of `C[C@@H](CO)n1cnc2c(-c3cccnc3)nc(-c3ccc(OC(F)(F)F)cc3)cc2c1=O` [Compound 22], in data set [1], the Rat hepatocyte clearance result is “++ (“++” indicates a CLint between 20 and 50 mL/min/Kg)”. In data set [3], the CLint scaled at 1 μM was < 20 mL/min/kg.

What is called inhibition is the percentage by which the read-out fell short of the control. Low values mean a response near the control, high ones a response far below the control.

The values above are taken from patent publication US20230295152A1 (SENDA BIOSCIENCES, INC., priority 2019, published 2023).
